Assays:
[1] = tested on: gamma globin-luciferase reporter constructs in K562 cells; assay: BA inducibility of different gamma globin-reporter gene constructs in transiently transfected K562 cells; format: cell-based, human
From the text: The entire human globin gene locus, spanning approximately 150 kilobases, is shown schematically in FIG. 1. Depicted are the different globin structural genes and cis-active regulatory elements (e.g., promoters and enhancers). To construct gamma globin reporter gene plasmids, nucleic acid fragments comprising nucleotide sequences normally flanking (i.e., at either the 5' or 3' end of) the gamma globin gene were obtained and subcloned into a plasmid encoding a reporter gene. The human gamma globin 5' promoter fragment consisted of nucleotides -1200 to +30, relative to the start site of transcription (nucleotide numbers 38205 to 39435 of the human gamma globin gene in the GENEMBL database, accession number J00179). The promoter fragment was obtained from human genomic DNA by polymerase chain reaction (PCR) amplification using oligonucleotide primers of the sequences: […]
These constructs are illustrated schematically in FIG. 2.
In a first series of experiments, K562 cells transiently transfected with the different gamma globin-reporter genes described in Example 1 were treated with butyric acid (BA). After treatment, the level of reporter gene activity (i.e., luciferase activity) in the treated cells was compared to determine the BA-inducibility of the different reporter gene constructs. The results are shown graphically in FIG. 2, which illustrates the fold induction of luciferase activity by BA relative to untreated cells. […] All other constructs tested (including gammaSV40, beta3'PE, HS2/3gamma3'PE and gamma) were at least 2 fold less responsive to BA treatment.
To test whether the increased sensitivity of the gamma globin promoter to BA was due to a specific property of the globin 3' Proximal Enhancer or if this was a property of transcriptional enhancers in general, two copies of the 72 bp repeat of the SV40 enhancer (isolated by PCR from the simian virus 40 genome) were substituted for the 3' Proximal Enhancer in the context of the gamma globin promoter (construct gammaSV40). […] This may be due to the unnatural proximity of these enhancer sequences to the gamma globin promoter in this construct. Normally, these sequence reside over 30 kB upstream of the promoter and one function of BA in vivo may be to promote interaction between the chromosomal LCR sequences and the gamma globin promoter. Artificially positioning the LCR components near the gamma globin promoter may have in fact complemented the effect of BA. Thus, empirically, it appears that maintaining the cis-active elements of the gamma globin locus in their natural context is important for developing the most sensitive reporter gene assay system for detecting gone induction by short chain fatty acids such as BA.

in vitro = details: human, k562 cells
Description: (§1) To normalize luciferase units to the number of viable cells, parallel cell viability assays were performed using 3-(4,5-dimethylthiazol-2-yl)-2,5-diphenyltetrazolium bromide (MTT) (Vistica, D. T. et al. (1991) Cancer Res. 51:2515-2520). Transfected K562 cells were plated in 96 well dishes at a density of 2×10^4 and 2×10^3 cells per 100 μl per well. 24 hours later, the cells were treated with test compounds (at a final concentration of 5 mM). At 24, 50, 74 or 122 hours after treatment, 50 μl of 3 mg/ml MTT in PBS was added to each well. The 96 well plate was then incubated at 37° C. for 4 to 5 hours. The formazan derivatives formed from tetrazolium by viable cells were solubilized by the addition of 50 μl/well 25% SDS, pH 3, overnight at 37° C. The plates were than read at a wavelength of 550 nm.

K562 cells = assay: in vitro
Description: as §1

[2] = tested on: gamma globin promoter deletion-luciferase constructs in K562 cells; assay: BA inducibility of gamma globin promoter deletion constructs; format: cell-based, human; details: 5 mM BA, 24 hours
From the text: Luciferase reporter gene constructs containing serial deletions in the 5' end of the gamma globin promoter were made by cloning truncated promoter DNA fragments upstream (i.e., 5') of the luciferase gene in pGL2. The gamma globin 3' Proximal Enhancer element (3'PE) was cloned downstream (i.e., 3') of the luciferase reporter gene in these constructs. Truncated gamma globin promoter DNA fragments were generated by PCR using as the upstream primer oligonucleotides having the sequences:
To create a construct with 5' terminus at position -140, the -577 reporter gene construct was digested with NcoI and KpnI, the fragment containing the deleted promoter and reporter gene (i.e., the large restriction fragment) was treated with T4 DNA polymerase to fill-in the restriction sites and the fragment was treated with T4 DNA ligase to religate the construct.
To determine the inducibility of each deletion construct by butyric acid, the constructs were introduced into K562 cells by electropotation as described above. Forty-eight hours after transfection, the cells were treated with 5 mMBA. Luciferase activity was measured 24 hours later. The inducibility of the deletion constructs is illustrated in FIGS. 16 and 17.

[3] = tested on: neoplastic and non-neoplastic cells; details: Newmark et al. 1994; cited from earlier work

SMILES: CCCC(=O)O [BA, butyric acid]
- effect of LCR sequences on BA sensitivity of gamma3'PE construct ([1]; HS2/3gamma3'PE vs gamma3'PE): reduce the sensitivity of the gamma3'PE construct to BA
- BA induction of beta3'PE construct ([1]; beta globin promoter with 3'Proximal Enhancer): not inducible
- BA responsiveness of gamma3'PE construct ([1]; gamma3'PE, fold induction relative to untreated cells): most responsive to BA
- BA induction of gamma construct ([1]; gamma globin promoter without 3' Proximal Enhancer): inducible, albeit to a lesser extent than when in the context of the 3' Proximal Enhancer
- SV40 enhancer effect on BA responsiveness of gamma globin promoter ([1]; gammaSV40): not effective in augmenting the responsiveness of the gamma globin promoter to BA
- fold lower BA responsiveness of other constructs than gamma3'PE ([1]; gammaSV40, beta3'PE, HS2/3gamma3'PE and gamma, transient transfection): at least 2 fold
- BA induction of promoterless constructs ([1]; luciferase gene only or fused to 3'Proximal Enhancer): not induced by BA
- cytotoxicity at 72 h, 5000 µM (in vitro): ~100%
- viability at 122 h, 5000 µM (in vitro): < 30%
- effect on cell viability within 24 hours (FIG. 7) (K562 cells): negative effect on cell viability within 24 hours after treatment
- BA inducibility on promoter deletion to -108 [2]: markedly reduced the BA inducibility of the construct
- BA responsiveness on promoter deletion from -1260 to -140 [2]: did not significantly alter the responsiveness of the reporter construct to BA
- induction of differentiation [3]: induce differentiation of neoplastic and non-neoplastic cells

From patent US5700640A, “Inducers of gamma globin gene expression and screening assays therefor” (priority 1994, dated 1997)
